# PMC9138683, “Decoding the Role of Melatonin Structure on Plasmodium falciparum Human Malaria Parasites Synchronization Using 2-Sulfenylindoles Derivatives” (Biomolecules, 2022)
# “Also recorded” adds a separate entry of the source. Like-named read-outs stand apart in the source and are kept apart here.
# Legend:
# [1] = test system: P. falciparum 3D7 parasites; experiment: Effects of indole derivatives (500 nM) on parasitemia; assay type: cell-based, Plasmodium falciparum; settings: for effect on parasitemia (in words): 500 nM compound alone, 3D7 asynchronous, 48 h; for increase in parasitemia / decrease in parasitemia: 500 nM compound; for increase in parasitemia / activity at 0.5 µM / decrease in parasitemia: 3D7, 48 h; for increase in parasitemia: compared to DMSO control (100.6%); for activity at 0.5 µM: Plasmodium falciparum, normalized to DMSO control, read-out: Parasitemia (%) Treatment with compound (500nM); for decrease in parasitemia: compared to DMSO control
# Procedure: (§1) To evaluate the role of the compounds in parasitemia, 1% 3D7 parasites in 2% hematocrit were incubated for 48 h with 500 nM of the 2-sulfenylindole derivatives. Melatonin (100 nM) was used as a positive control, and DMSO (0.0013% v/v) was used as a negative control. The concentration of DMSO chosen as control was the concentration present in the tested compounds at 500 nM. The activity of the compounds was measured by SG-I and MT-Red staining. The data obtained were normalized to those of the control (DMSO). Additionally, to test the ability of the compounds to affect melatonin activity in parasitemia, 3D7 parasites were incubated with 500 nM indole compounds along with 100 nM melatonin for 48 h.
# After incubation, the final parasitemia was determined using flow cytometry.
# [2] = test system: P. falciparum 3D7 parasites; experiment: Effect of 2-sulfenylindoles in combination with 100 nM melatonin on parasitemia; assay type: cell-based, Plasmodium falciparum; settings: 3D7, 48 h; for Parasitemia (%) Treatment with compound (500nM) + Melatonin (100nM): normalized to DMSO control
# Procedure: as §1
# Following the assumption that compounds resembling melatonin structure might interact through the melatonin signaling pathways, we evaluated the effect of the compounds on melatonin action on parasitemia. Our next step was to study the combination of 2-sulfenylindoles with melatonin in asynchronous 3D7 by incubating parasites simultaneously with 100 nM melatonin and 500 nM of each compound.
# [3] = test system: Plasmodium falciparum 3D7 (chloroquine-sensitive); experiment: In vitro drug susceptibility assay, 3D7 strain (flow cytometry, SYBR Green I / MitoTracker Deep Red); assay type: cell-based; settings: read-out: IC50 ± SD Pf3D7
# Procedure: (§2) The cultures were maintained under an atmosphere of 5% CO2, 5% O2, and 90% N2. Fresh complete medium was provided daily, and rapid-stained (Panotico) blood smears were examined.
# (§3) To evaluate the effects of synthetic compounds on the intraerythrocytic development of P. falciparum, we analyzed parasitemia by flow cytometry with 0.3% initial parasitemia and 1% hematocrit in the assay. Plates were incubated with the compounds at concentrations ranging from 0.10 to 100 µM for 72 h. Dual staining with SYBR Green I (SG-I) (Invitrogen, Waltham, MA, USA) and MitoTracker Deep Red (MT-Red) (Invitrogen) were used to label nucleic acids and mitochondria, respectively. Approximately 10,000 cells were counted by an Accuri C6 (Becton Dickinson, San Jose, CA, USA) and analyzed by FlowJo 5 software. Parasitemia was determined from the analysis of dot plots (side scatter versus fluorescence).
# (§4) We determined the susceptibility of P. falciparum to the indole compounds and investigated whether CQR parasites responded differently to the compounds. […] We determined the IC50 values for each compound by analyzing viable and non-viable parasites after compound treatment, represented in dot plots (Figure 1H).
# [4] = Cytotoxicity assay (MTT); assay type: cell-based, human; settings: human, HEK293T (HEK293) cells, 0.10-100 µM, read-out: CC50 ± SD HEK293
# Procedure: HEK293T (human embryonic kidney) cells were cultured in 75 cm^2 vented tissue culture flasks (Greiner Bio-One, Frickenhausen, Germany) at 37 °C in a humidified atmosphere containing 5% CO2 in Dulbecco’s modified […] (Gibco) supplemented with 10% (v/v) fetal bovine serum (Gibco), 100 U/mL penicillin, and 100 μg/mL streptomycin (Sigma). Cytotoxicity was evaluated with the 4,5-dimethylthiazol-2-yl-2,5-diphenyltetrazolium bromide (MTT) cell proliferation assay. Briefly, 10^4 cells/well were seeded in flat-bottom 96-well plates in complete DMEM medium for 24 h, followed by incubation with different concentrations of each compound (0.10–100 µM) for 72 h. DMSO (0.13%) and digitonin were used as the negative and positive controls, respectively. The concentrations of DMSO chosen as control were the concentration present in the tested compounds (from 0.0001% to 0.12%, two-fold dilution). After 72 h, cells were then incubated with the MTT reagent for 3 h, and absorbance was measured at 570 nm using a FlexStation® 3 Multi-Mode Microplate Reader (Molecular Devices, Sunnyvale, CA, USA). Moreover, we calculated the selectivity indexes (SI) to understand whether the compounds were more toxic to parasites than cells, or vice versa, according to the ratio of the CC50 value to the IC50 value for each compound.
# We further assessed the toxicity of 2-sulfenylindole compounds against HEK293 cells using the MTT assay with different concentrations of the compounds for 72 h. Table 1 presents all the toxicity data and summarizes the IC50 values of the compounds evaluated in this study for Dd2 and 3D7 strains.
# [5] = test system: Plasmodium falciparum Dd2 (chloroquine-resistant); experiment: In vitro drug susceptibility assay, Dd2 strain (flow cytometry, SYBR Green I / MitoTracker Deep Red); assay type: cell-based; settings: read-out: IC50 ± SD PfDd2
# Procedure: as §2, §3, §4
# [6] = test system: P. falciparum 3D7 strain; experiment: Blood-stage development evaluation by microscopy; assay type: cell-based, Plasmodium falciparum; settings: ring-stage synchronized 3D7, treated at IC50 (30 µM for 20 and 28), monitored every 12 h
# Procedure: Ring-stage parasites (10–14 h) at 1% parasitemia in 2% hematocrit were treated with compound 20 and compound 28 at concentrations of 1 and 30 µM in 24-well plates for 48 h. Treatment with chloroquine (20 nM) and DMSO (0.1%) was used as positive and negative controls. Smears were rapid stained (Panotico) every 12 h after treatment (12, 24, 36, 48, and 60 h time points), and we took images of parasites to assess the blood-stage development (Zeiss, Oberkochen, Germany).
# During monitoring, parasites continued to develop throughout the cycle in the presence of both compounds. […] To examine its stage specificity, we monitored development every 12 h.
# Figure 5 Parasitemia reduction with compound 20 (A) and compound 28 (B) to determine the stage activity. Data are means ± SD. Ring-stage synchronized parasites with sorbitol 5% were treated with chloroquine (20 nM), compound 20 (30 µM), and compound 28 (30 µM). The chosen treatment concentration was the IC50 values obtained for these compounds against the 3D7 parasites. (C) After drug administration, smears of P. falciparum 3D7 strain were taken at 0, 12, 24, 36, 48, and 60 h after drug administration, observing the growth development of treated parasites. * p ≤ 0.05, ** p ≤ 0.01, *** p ≤ 0.001.
# [7] = Plasmodium falciparum, 3D7, 72 h, asynchronous parasites, 72 h, 0.1-100 µM
# [8] = Plasmodium falciparum, DD2, 72 h, asynchronous parasites, 72 h, 0.1-100 µM
# [9] = asynchronous parasites, 72 h, 0.1-100 µM
# [10] = 500 nM compound + 100 nM melatonin
SMILES,"IC50 [3, 7] [µM]","IC50 [5, 8] [µM]","IC50 [3, 9] [µM]","IC50 [5, 9] [µM]",effect on parasitemia (in words) [1],increase in parasitemia [1] [%],activity at 0.5 µM [1] [%],Parasitemia (%) Treatment with compound (500nM) + Melatonin (100nM) [2] [%],CC50 at 72 h [4] [µM],decrease in parasitemia [1] [%],stage-specific effect on blood-stage development [6],"effect on melatonin action on parasitemia (in words) [2, 10]","IC50 ([3]; Plasmodium falciparum, 3D7, 72 h) [µM]","IC50 ([5]; Plasmodium falciparum, DD2, 72 h) [µM]","increase in parasitemia compared to control group ([2]; 500 nM compound + 100 nM melatonin, versus control group (100.7%)) [%]"
COC(=O)Cc1c(SC(C)(C)C)[nH]c2ccccc12 [Compound 16],31.7 ± 5.09,48.5 ± 2.88,–,–,led to an increase in parasitemia,11.2,112 ± 1.76,127.4 ± 4.10,26.5 ± 8.7,–,–,–,–,–,–
COC(=O)Cc1c(Sc2ncccn2)[nH]c2ccccc12 [Compound 10],54.9 ± 2.25,43.6 ± 3.06,–,–,–,–,101 ± 2.14,130.2 ± 6.02,> 100,–,–,–,–,–,–
"CCN(CC)CCCC(C)Nc1ccnc2cc(Cl)ccc12 (stereo not shown) [Chloroquine, reference compound]",–,–,–,–,–,–,–,–,–,–,–,–,0.0223 ± 0.00417,0.199 ± 0.0262,–
COC(=O)Cc1c(SCCCCO)[nH]c2ccccc12 [Compound 19],27.8 ± 2.03,39.9 ± 1.61,–,–,–,–,100 ± 1.81,118.5 ± 2.85,28.1 ± 5.46,–,–,–,–,–,–
COC(=O)Cc1c(Sc2ccccc2C(=O)O)[nH]c2ccccc12 [Compound 8],37.3 ± 3.58,43.3 ± 6.51,–,–,–,–,102 ± 1.71,133.5 ± 8.06,> 100,–,–,–,–,–,–
COC(=O)Cc1c(Sc2cccc(O)c2)[nH]c2ccccc12 [Compound 7],58.2 ± 2.45,55.4 ± 2.96,–,–,–,–,96.5 ± 2.39,122.9 ± 5.60,31.6 ± 4.03,4.05,–,–,–,–,22.2

# Now from value to compound, other results behind:
"IC50 [3, 7] [µM]","IC50 [5, 8] [µM]","IC50 [3, 9] [µM]","IC50 [5, 9] [µM]",SMILES,effect on parasitemia (in words) [1],increase in parasitemia [1] [%],activity at 0.5 µM [1] [%],Parasitemia (%) Treatment with compound (500nM) + Melatonin (100nM) [2] [%],CC50 at 72 h [4] [µM],decrease in parasitemia [1] [%],stage-specific effect on blood-stage development [6],"effect on melatonin action on parasitemia (in words) [2, 10]","IC50 ([3]; Plasmodium falciparum, 3D7, 72 h) [µM]","IC50 ([5]; Plasmodium falciparum, DD2, 72 h) [µM]","increase in parasitemia compared to control group ([2]; 500 nM compound + 100 nM melatonin, versus control group (100.7%)) [%]"
< 20,35.8 ± 4.64,13.5 ± 2.37,–,c1ccc(Cc2c(Sc3ccccc3)[nH]c3ccccc23)cc1 [Compound 26],–,–,92.7 ± 4.17,110.4 ± 3.18,34.7 ± 8.44,7.94,reduced the progress from rings to trophozoites; also recorded: affect ring to trophozoite progression,–,–,–,–
26.5 ± 4.87,45.5 ± 4.84,–,–,COC(=O)Cc1c(Sc2ccccc2)[nH]c2ccc(OC)cc12 [Compound 25],led to an increase in parasitemia,6.6,107 ± 2.46,112.8 ± 2.93,13.1 ± 3.74,–,–,did not potentiate or block the effect of melatonin on parasitemia,–,–,–
25 ± 2.9,35.4 ± 1.56,–,–,CCSc1[nH]c2ccccc2c1CC(=O)OC [Compound 17],did not affect parasitemia,–,98.6 ± 2.95,123.6 ± 3.11,26.5 ± 4.67,–,–,–,–,–,–
< 20,< 20,13.5 ± 3.24,15.7 ± 4.87,COC(=O)Cc1c(SC23CC4CC(CC(C4)C2)C3)[nH]c2ccccc12 [Compound 18],–,–,98 ± 2.61,113.9 ± 2.90,16.8 ± 2.63,–,reduced the progress from rings to trophozoites; also recorded: affect ring to trophozoite progression,–,–,–,–
< 20,< 20,10.6 ± 5.19,18 ± 1.72,COC(=O)Cc1c(Sc2ccccc2)[nH]c2ccccc12 [Compound 3],no increase was observed,–,98.2 ± 2.28,129.8 ± 6.78,15.2 ± 1.36,–,reduced the progress from rings to trophozoites; also recorded: affect ring to trophozoite progression,slight increase in parasitemia,–,–,–
< 20,< 20,19.1 ± 1.78,16.9 ± 4.66,CCCCCCCCCCCCSc1[nH]c2cc(Cl)ccc2c1CC(=O)OC [Compound 21],led to an increase in parasitemia,3.8,104.4 ± 1,111.9 ± 2.78,> 100,–,–,–,–,–,–
20.9 ± 2.97,37.1 ± 7.66,–,–,COC(=O)Cc1c(SCc2ccccc2)[nH]c2ccccc12 [Compound 14],–,–,97.8 ± 3.41,128.5 ± 4.13,23.7 ± 8.54,–,–,–,–,–,–
